This note sets out measurements from patent publication US7169786B2, “Isoxazoline derivatives as anti-depressants” (priority 2001, dated 2007).

Each structure is given as a SMILES string.

For experiment [1], the target named is T1, h5-HT transporter (Homo sapiens, UniProt P31645).
T1 construct: Human platelet membranes (Oceanix Biosciences Corporation, Hanover, Md., USA) were thawed; tissue Oceanix Biosciences Corporation, Hanover, Md., USA; host or cells: human platelet membranes
Description: Radioligand binding experiment for 5-HT transporter ([3H]paroxetine, human platelet membranes). The settings on record: human platelet membranes, [3H]paroxetine 0.5 nM; for IC50: read-out: 5HTT pIC50 (converted). The method, then: (§1) The interaction of the compounds of Formula (I) with hα2-receptors and h5-HT-transporters was assessed in in vitro radioligand binding experiments. In general, a low concentration of a radioligand with a high binding affinity for a particular receptor or transporter is incubated with a sample of a tissue preparation enriched in a particular receptor or transporter or with a preparation of cells expressing cloned human receptors in a buffered medium. During the incubation, the radioligand binds to the receptor or transporter. When equilibrium of binding is reached, the receptor bound radioactivity is separated from the non-bound radioactivity, and the receptor- or transporter-bound activity is counted. The interaction of the test compounds with the receptor is assessed in competition binding experiments. Various concentrations of the test compound are added to the incubation mixture containing the receptor- or transporter preparation and the radioligand. The test compound in proportion to its binding affinity and its concentration inhibits binding of the radioligand. The radioligand used for hα2A, hα2B and hα2C receptor binding was [^3H]-raulwolscine and for the h5-HT transporter was [^3H]paroxetine.
Human platelet membranes (Oceanix Biosciences Corporation, Hanover, Md., USA) were thawed, diluted in buffer (Tris-HCl 50 mM, 120 mM NaCl and 5 mM KCl) and quickly (max 3 s) homogenised with an Ultraturrax homogenizer. […] Filters were rinsed extensively with ice-cold buffer and radioactivity on the filters was counted in a Topcount liquid scintillation counter (Packard, Meriden, Conn.). Data were expressed as cpm. Imipramine (at 1 μM final concentration) was used to determine the non-specific binding.
(§2) Data from assays in the presence of compound were calculated as a percentage of total binding measured in the absence of test compound. Inhibition curves, plotting percent of total binding versus the log value of the concentration of the test compound, were automatically generated, and sigmoidal inhibition curves were fitted using non-linear regression. The pIC50 values of test compounds were derived from individual curves.

Experiment [2] deals with T2, hα2B receptor (Homo sapiens, UniProt P18089).
T2 construct: expressed in transfected cells
T2 sequence (P18089 1-450): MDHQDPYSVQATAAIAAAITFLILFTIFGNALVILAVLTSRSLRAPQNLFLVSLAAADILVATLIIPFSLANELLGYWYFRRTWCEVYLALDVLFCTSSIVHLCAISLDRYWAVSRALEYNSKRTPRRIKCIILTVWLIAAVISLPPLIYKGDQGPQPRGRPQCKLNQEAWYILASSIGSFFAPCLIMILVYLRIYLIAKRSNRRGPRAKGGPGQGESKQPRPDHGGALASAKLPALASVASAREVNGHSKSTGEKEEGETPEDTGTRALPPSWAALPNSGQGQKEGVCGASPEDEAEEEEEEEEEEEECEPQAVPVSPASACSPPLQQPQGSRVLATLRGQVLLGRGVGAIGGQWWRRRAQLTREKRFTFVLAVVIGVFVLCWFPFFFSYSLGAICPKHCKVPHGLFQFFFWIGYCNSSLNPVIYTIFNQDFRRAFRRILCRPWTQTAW
Kind of experiment: Radioligand binding experiment for hα2B receptor ([3H]-raulwolscine). Conditions: membranes of CHO cells expressing human α2B receptor, [3H]raulwolscine 1 nM; for IC50: read-out: hα2B pIC50 (converted). How it is done:
as §1
(§3) CHO cells, stabile transfected with human adrenergic-α2A-, -α2B or α2C receptor cDNA, were cultured in Dulbecco's Modified Eagle's Medium (DMEM)/Nutrient mixture Ham's F12 (ratio 1:1)(Gibco, Gent-Belgium) supplemented with 10% heat inactivated fetal calf serum (Life Technologies, Merelbeke-Belgium) and antibiotics (100 IU/ml penicillin G, 100 μg/ml streptomycin sulphate, 110 μg/ml pyruvic acid and 100 μg/ml L-glutamine). One day before collection, cells were induced with 5 mM sodiumbutyrate. Upon 80–90% of confluence, cells were scraped in phosphate buffered saline without Ca^2+ and Mg^2+ and collected by centrifugation at 1500×g for 10 min. The cells were homogenised in Tris-HCl 50 mM using an Ultraturrax homogenizer and centrifuged for 10 min at 23,500×g. The pellet was washed once by resuspension and rehomogenization and the final pellet was resuspended in Tris-HCl, divided in 1 ml aliquots and stored at −70° C.
(§4) Membranes were thawed and re-homogenized in incubation buffer (glycylglycine 25 mM, pH 8.0). […] Filters were rinsed extensively with ice-cold rinsing buffer (Tris-HCl 50 mM pH 7.4). Filter-bound radioactivity was determined by scintillation counting in a Topcount (Packard, Meriden, Conn.) and results were expressed as counts per minute (cpm). Non-specific binding was determined in the presence of 1 μM oxymetazoline for hα2A- and hα2B receptors and 1 μM spiroxatrine for hα2C receptors.
as §2

Experiment [3] deals with T3, hα2A receptor (Homo sapiens, UniProt P08913).
T3 construct: expressed in transfected cells
T3 sequence (P08913 1-465): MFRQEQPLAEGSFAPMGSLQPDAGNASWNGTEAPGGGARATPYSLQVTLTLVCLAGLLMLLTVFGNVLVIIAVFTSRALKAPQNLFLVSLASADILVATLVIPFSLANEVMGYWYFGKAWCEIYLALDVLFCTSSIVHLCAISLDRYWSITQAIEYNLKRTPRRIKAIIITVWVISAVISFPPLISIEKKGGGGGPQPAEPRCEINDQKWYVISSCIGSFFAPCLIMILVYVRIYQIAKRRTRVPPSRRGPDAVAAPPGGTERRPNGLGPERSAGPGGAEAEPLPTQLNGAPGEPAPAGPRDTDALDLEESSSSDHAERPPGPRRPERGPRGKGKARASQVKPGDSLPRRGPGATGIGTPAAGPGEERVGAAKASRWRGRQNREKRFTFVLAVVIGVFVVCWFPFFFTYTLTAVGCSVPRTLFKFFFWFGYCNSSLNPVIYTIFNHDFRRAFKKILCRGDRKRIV
Description: Radioligand binding experiment for hα2A receptor ([3H]-raulwolscine). The settings on record: membranes of CHO cells expressing human α2A receptor, [3H]raulwolscine 1 nM; for IC50: read-out: hα2A pIC50 (converted). The method, then: as §1, §3, §4, §2

In experiment [4] the target is T4, hα2C receptor (Homo sapiens, UniProt P18825).
T4 construct: expressed in transfected cells
T4 sequence (P18825 1-462): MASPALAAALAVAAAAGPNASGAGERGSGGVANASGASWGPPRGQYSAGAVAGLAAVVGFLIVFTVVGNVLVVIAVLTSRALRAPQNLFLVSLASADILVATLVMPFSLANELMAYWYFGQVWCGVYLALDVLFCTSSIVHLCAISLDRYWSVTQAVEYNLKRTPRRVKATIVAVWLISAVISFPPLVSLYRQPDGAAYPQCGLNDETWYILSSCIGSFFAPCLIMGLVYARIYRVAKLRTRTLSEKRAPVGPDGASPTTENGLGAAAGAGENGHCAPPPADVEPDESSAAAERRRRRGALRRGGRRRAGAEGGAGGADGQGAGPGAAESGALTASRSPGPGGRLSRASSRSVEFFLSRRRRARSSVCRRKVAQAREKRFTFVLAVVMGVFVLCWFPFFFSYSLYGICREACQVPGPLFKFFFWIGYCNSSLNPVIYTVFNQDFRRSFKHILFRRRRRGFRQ
Kind of experiment: Radioligand binding experiment for hα2C receptor ([3H]-raulwolscine). The settings on record: membranes of CHO cells expressing human α2C receptor, [3H]raulwolscine 1 nM; for IC50: read-out: hα2C pIC50 (converted). The method, then:
as §1, §3, §4, §2

T1 sequence (P31645 whole entry): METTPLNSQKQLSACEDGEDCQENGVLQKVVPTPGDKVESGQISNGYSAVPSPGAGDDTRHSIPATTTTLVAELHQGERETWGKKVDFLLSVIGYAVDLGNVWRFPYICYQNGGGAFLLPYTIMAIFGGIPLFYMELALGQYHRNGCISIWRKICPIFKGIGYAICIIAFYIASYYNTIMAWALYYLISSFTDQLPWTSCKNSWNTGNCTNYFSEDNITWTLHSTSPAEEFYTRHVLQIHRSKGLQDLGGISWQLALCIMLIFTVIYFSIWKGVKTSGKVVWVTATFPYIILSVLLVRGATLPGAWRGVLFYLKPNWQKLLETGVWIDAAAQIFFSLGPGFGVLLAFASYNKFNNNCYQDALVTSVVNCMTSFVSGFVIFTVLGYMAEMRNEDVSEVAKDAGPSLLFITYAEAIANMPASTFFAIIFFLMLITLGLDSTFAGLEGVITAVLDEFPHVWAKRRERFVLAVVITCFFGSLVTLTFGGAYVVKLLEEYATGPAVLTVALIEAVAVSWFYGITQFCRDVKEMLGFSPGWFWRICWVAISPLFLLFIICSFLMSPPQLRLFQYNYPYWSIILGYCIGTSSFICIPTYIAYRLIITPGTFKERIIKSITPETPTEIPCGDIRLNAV

Regarding `COc1cc2c(cc1OC)C1=NOC(CN3CCN(Cc4ccccc4)CC3)C1CO2` (stereo not shown) [Compound 31], the IC50 is 0.501 µM in experiment [1], 0.631 µM in experiment [2], 0.794 µM in experiment [3] and 1 µM in experiment [4].
On the same counts, the results for `COc1cc2c(cc1OC)C1=NOC(CN3CCN(Cc4cccc(F)c4)CC3)C1CO2` (stereo not shown) [Compound 285] are 0.257 µM, 0.575 µM, 0.603 µM and 0.363 µM.
Regarding `COc1cc2c(cc1F)C1=NOC(CN3CCN(CC(C)=Cc4ccccc4)CC3)C1CO2` (stereo not shown) [Compound 241], the IC50 in experiment [2] is 0.00741 µM; in experiment [3], 0.0166 µM; in experiment [4], 0.00631 µM.
As to `COc1cc2c(cc1OC)C1=NOC(CN3CCN(C/C=C/C=C/c4ccccc4)CC3)C1CO2` (single isomer, unassigned) [Compound 127], the IC50 in experiment [1] is 0.0631 µM; in experiment [2] it was 0.123 µM; in experiment [3], 0.141 µM; in experiment [4], 0.0257 µM.
Take `COc1cc2c(cc1OC)C1=NOC(CN(C)C3CCN(Cc4ccc5ccccc5c4)CC3)C1CO2` (racemic) [Compound 281]: in experiment [1], the “5HTT pIC50” value was found to be 7.25. Besides, in experiment [2], the “hα2B pIC50” value stood at 7.19. In addition, the “hα2A pIC50” value in experiment [3] was determined as 7.05. Moreover, in experiment [4], the “hα2C pIC50” value was found to be 7.31.
Take `COc1cc2c(cc1O)OCC1C2=NOC1CN1CCN(C/C(C)=C/c2ccccc2)CC1` (stereo not shown) [Compound 3]: the IC50 in experiment [1] was 0.0162 µM; in experiment [2], 0.00257 µM; in experiment [3] it was 0.00234 µM; in experiment [4] it was 0.00186 µM.
In the case of `COc1ccc2c(c1)OCC1C2=NOC1CN1CCN(Cc2ccc3ccccc3c2)CC1` (stereo not shown) [Compound 265], the IC50 in experiment [1] was 0.0148 µM; in experiment [2] it was 0.0209 µM; in experiment [3], 0.00347 µM; in experiment [4] it was 0.0275 µM.
For `COc1cc2c(cc1OC)C1=NOC(CN3CCN(Cc4ccc5cc(F)ccc5c4)CC3)C1CO2` (stereo not shown) [Compound 76], the IC50 is 0.00158 µM in experiment [1], 0.0891 µM in experiment [2], 0.0724 µM in experiment [3] and 0.0251 µM in experiment [4].
`COc1cc2c(cc1OC(C)=O)C1=NOC(CN3CCN(CC(C)=Cc4ccccc4)CC3)C1CO2` (stereo not shown) [Compound 257]: in experiment [1], the “5HTT pIC50” value came out at 7.46. The “hα2B pIC50” value in experiment [2] amounted to 8.37. The “hα2A pIC50” value in experiment [3] came to 7.52. The “hα2C pIC50” value in experiment [4] is 8.65.
Consider `COc1cc2c(cc1OC)C1=NOC(CN3CCN(C/C=C/c4ccsc4)CC3)C1CO2` (single isomer, unassigned) [Compound 314], for which the IC50 in experiment [1] is 0.00871 µM; in experiment [2], 0.00692 µM; in experiment [3], 0.0112 µM; in experiment [4], 0.00646 µM.
The corresponding values for `c1ccc2cc(CN3CCN(CC4ON=C5c6ccc(OC7CCOC7)cc6OCC54)CC3)ccc2c1` (stereo not shown) [Compound 271] are 0.00295 µM, 0.0138 µM, 0.00389 µM and 0.0427 µM.
On to `CC(=O)Oc1ccc2c(c1)OCC1C2=NOC1CN1CCN(Cc2ccc3ccccc3c2)CC1` (stereo not shown) [Compound 273], for which the IC50 in experiment [1] is 0.0132 µM; in experiment [2], 0.0209 µM; in experiment [3], 0.00776 µM; in experiment [4], 0.0309 µM.
On the same counts, the results for `COc1cc2c(cc1OC)C1=NOC(CN3CCN(Cc4ccc5cc(C)ccc5c4)CC3)C1CO2` (stereo not shown) [Compound 72] are 0.00692 µM, 0.178 µM, 0.0468 µM and 0.0661 µM.
Turning to `COc1cc2c(cc1OC)C1=NOC(CN3CCN(CCCc4ccccc4)CC3)C1CO2` (stereo not shown) [Compound 32], the IC50 in experiment [1] is 0.017 µM; in experiment [2], 0.0145 µM; in experiment [3] it was 0.0126 µM; in experiment [4], 0.0115 µM.
On to `COc1cc2c(cc1OC)C1=NOC(CN3CCN(CC(C)=Cc4ccc(F)cc4)CC3)C1CO2` (stereo not shown) [Compound 196], for which the IC50 in experiment [2] was 0.00363 µM; in experiment [3], 0.0145 µM; in experiment [4], 0.00813 µM.
On the same counts, the results for `COc1cc2c(cc1OC)C1=NOC(CN3CCN(CC(C)=Cc4cccc(F)c4)CC3)C1CO2` (stereo not shown) [Compound 195] are 0.00158 µM, 0.00457 µM and 0.00209 µM.
On the same counts, the results for `COc1cc2c(cc1OC)C1=NOC(CN3CCN(CC(C)=Cc4cccc5ccccc45)CC3)C1CO2` (stereo not shown) [Compound 157] are 0.0525 µM, 0.0135 µM and 0.0741 µM.
On the same counts, the results for `COc1ccccc1C=C(C)CN1CCN(CC2ON=C3c4cc(OC)c(OC)cc4OCC32)CC1` (stereo not shown) [Compound 201] are 0.00324 µM, 0.00437 µM and 0.00457 µM.
Regarding `COc1cc2c(cc1OC)C1=NOC(CN3CCN(CC(C)=Cc4cc(F)ccc4F)CC3)C1CO2` (stereo not shown) [Compound 199], the IC50 in experiment [2] was 0.001 µM; in experiment [3], 0.0012 µM; in experiment [4] it was 0.00166 µM.
On the same counts, the results for `COc1ccccc1C=CCN1CCN(CC2ON=C3c4cc(OC)c(OC)cc4OCC32)CC1` (stereo not shown) [Compound 41] are 0.00501 µM, 0.0158 µM and 0.0126 µM.
